Measurements as given in ChEMBL document CHEMBL1201862, “PubChem BioAssay data set” (2004).
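Dose response: 5 concentrations. Exposure: 48 h. Format: 96-well plates. Endpoint: linear interpolation; highest concentration if not reached. GI50 is the concentration that inhibits growth by half.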 Activity calls are given as the source filed them. Rule as the data show it: active = GI50 up to about 1.1 µM and inactive = higher.

What was measured:
Experiment in all cases: NCI tumour cell line growth inhibition, 48 h
786-0 = tested on: 786-0
A498 = tested on: A498
A549 = tested on: A549
ACHN = tested on: ACHN
BT-549 = tested on: BT-549
CAKI-1 = tested on: CAKI-1
CCRF-CEM = tested on: CCRF-CEM
COLO 205 = tested on: COLO 205
DU-145 = tested on: DU-145
EKVX = tested on: EKVX
HCC 2998 = tested on: HCC 2998
HCT-116 = tested on: HCT-116
HCT-15 = tested on: HCT-15
HL-60 = tested on: HL-60
HOP-62 = tested on: HOP-62
HOP-92 = tested on: HOP-92
HT-29 = tested on: HT-29
Hs-578T = tested on: Hs-578T
IGROV-1 = tested on: IGROV-1
K562 = tested on: K562
KM12 = tested on: KM12
LOX IMVI = tested on: LOX IMVI
M14 = tested on: M14
MCF7 = tested on: MCF7
MDA-MB-231 = tested on: MDA-MB-231
MDA-MB-435 = tested on: MDA-MB-435
MDA-N = tested on: MDA-N
MOLT-4 = tested on: MOLT-4
NCI-H226 = tested on: NCI-H226
NCI-H23 = tested on: NCI-H23
NCI-H460 = tested on: NCI-H460
NCI-H522 = tested on: NCI-H522
NCI/ADR-RES = tested on: NCI/ADR-RES
OVCAR-3 = tested on: OVCAR-3
OVCAR-4 = tested on: OVCAR-4
OVCAR-5 = tested on: OVCAR-5
OVCAR-8 = tested on: OVCAR-8
PC-3 = tested on: PC-3
RPMI-8226 = tested on: RPMI-8226
RXF 393 = tested on: RXF 393
SF-268 = tested on: SF-268
SF-295 = tested on: SF-295
SF-539 = tested on: SF-539
SK-MEL-28 = tested on: SK-MEL-28
SK-MEL-2 = tested on: SK-MEL-2
SK-MEL-5 = tested on: SK-MEL-5
SK-OV-3 = tested on: SK-OV-3
SN12C = tested on: SN12C
SNB-19 = tested on: SNB-19
SNB-75 = tested on: SNB-75
SR = tested on: SR
SW-620 = tested on: SW-620
T47D = tested on: T47D
TK-10 = tested on: TK-10
U-251 = tested on: U-251
UACC-257 = tested on: UACC-257
UACC-62 = tested on: UACC-62
UO-31 = tested on: UO-31
Malme-3M = tested on: Malme-3M

In the case of `CCCCN(C)C(=O)C1=C(C)NC(C)=C(C(=O)N(C)CCCC)C1`, the GI50 (786-0) was > 100 µM (inactive), the GI50 (A498) was > 100 µM (inactive) and the GI50 (A549) was > 100 µM (inactive). The GI50 (ACHN) was > 100 µM (inactive), the GI50 (BT-549) was > 100 µM (inactive) and the GI50 (CAKI-1) was > 100 µM (inactive). The GI50 (CCRF-CEM) was 66.2 µM (inactive), the GI50 (COLO 205) was > 100 µM (inactive) and the GI50 (DU-145) was > 100 µM (inactive). For the same molecule, the GI50 (EKVX) was > 100 µM (inactive), the GI50 (HCC 2998) was > 100 µM (inactive) and the GI50 (HCT-116) was > 100 µM (inactive). For the same molecule, the GI50 (HCT-15) was greater than 100 µM, the GI50 (HL-60) was 54.1 µM (inactive) and the GI50 (HOP-62) was > 100 µM (inactive). For the same molecule, the GI50 (HOP-92) was > 100 µM (inactive), the GI50 (HT-29) was > 100 µM (inactive) and the GI50 (Hs-578T) was > 100 µM (inactive). The GI50 (IGROV-1) was > 100 µM (inactive), the GI50 (K562) was 54.3 µM (inactive) and the GI50 (KM12) was > 100 µM (inactive). For the same molecule, the GI50 (LOX IMVI) was > 100 µM (inactive), the GI50 (M14) was > 100 µM (inactive) and the GI50 (MCF7) was > 100 µM (inactive). For the same molecule, the GI50 (MDA-MB-231) was > 100 µM (inactive), the GI50 (MDA-MB-435) was > 100 µM (inactive) and the GI50 (MDA-N) was > 100 µM (inactive). The GI50 (MOLT-4) was > 100 µM (inactive), the GI50 (NCI-H226) was > 100 µM (inactive) and the GI50 (NCI-H23) was > 100 µM (inactive). For the same molecule, the GI50 (NCI-H460) was > 100 µM (inactive), the GI50 (NCI-H522) was > 100 µM (inactive) and the GI50 (NCI/ADR-RES) was > 100 µM (inactive). For the same molecule, the GI50 (OVCAR-3) was > 100 µM (inactive), the GI50 (OVCAR-4) was > 100 µM (inactive) and the GI50 (OVCAR-5) was > 100 µM (inactive). The GI50 (OVCAR-8) was > 100 µM (inactive), the GI50 (PC-3) was > 100 µM (inactive) and the GI50 (RPMI-8226) was > 100 µM (inactive). For the same molecule, the GI50 (RXF 393) was > 100 µM (inactive), the GI50 (SF-268) was > 100 µM (inactive) and the GI50 (SF-295) was > 100 µM (inactive). The GI50 (SF-539) was > 100 µM (inactive), the GI50 (SK-MEL-28) was > 100 µM (inactive) and the GI50 (SK-MEL-2) was > 100 µM (inactive). For the same molecule, the GI50 (SK-MEL-5) was > 100 µM (inactive), the GI50 (SK-OV-3) was > 100 µM (inactive) and the GI50 (SN12C) was > 100 µM (inactive). For the same molecule, the GI50 (SNB-19) was > 100 µM (inactive), the GI50 (SNB-75) was 50.7 µM (inactive) and the GI50 (SR) was 83.9 µM (inactive). The GI50 (SW-620) was > 100 µM (inactive), the GI50 (T47D) was 54.7 µM (inactive) and the GI50 (TK-10) was > 100 µM (inactive). The GI50 (U-251) was > 100 µM (inactive), the GI50 (UACC-257) was > 100 µM (inactive) and the GI50 (UACC-62) was > 100 µM (inactive). For the same molecule, the GI50 (UO-31) was 61.1 µM (inactive).

For `N#Cc1c(C#N)c(-c2ccccc2)n(/N=C\c2ccccc2)c1N`, the GI50 (786-0) was 28.1 µM (inactive), the GI50 (A498) was 23.8 µM (inactive) and the GI50 (A549) was 13 µM (inactive). The GI50 (ACHN) was 14.2 µM (inactive), the GI50 (BT-549) was 18.7 µM (inactive) and the GI50 (CAKI-1) was 18.3 µM (inactive). For the same molecule, the GI50 (CCRF-CEM) was 12.3 µM (inactive), the GI50 (COLO 205) was 22.5 µM (inactive) and the GI50 (DU-145) was 35.2 µM (inactive). For the same molecule, the GI50 (EKVX) was 13.6 µM (inactive), the GI50 (HCC 2998) was 19.7 µM (inactive) and the GI50 (HCT-116) was 29.4 µM (inactive). For the same molecule, the GI50 (HCT-15) was 30.6 µM, the GI50 (HL-60) was 16.1 µM (inactive) and the GI50 (HOP-62) was 31.3 µM (inactive). The GI50 (HOP-92) was 20.8 µM (inactive), the GI50 (HT-29) was 26.1 µM (inactive) and the GI50 (Hs-578T) was 15.9 µM (inactive). The GI50 (IGROV-1) was 15.6 µM (inactive), the GI50 (K562) was 13.2 µM (inactive) and the GI50 (KM12) was 26.9 µM (inactive). The GI50 (LOX IMVI) was 8.02 µM (inactive), the GI50 (M14) was 24.8 µM (inactive) and the GI50 (MCF7) was 11.8 µM (inactive). The GI50 (MDA-MB-231) was 16 µM (inactive), the GI50 (MDA-MB-435) was 45.4 µM (inactive) and the GI50 (MDA-N) was 36.1 µM (inactive). The GI50 (MOLT-4) was 5.27 µM (inactive), the GI50 (Malme-3M) was 29.9 µM (inactive) and the GI50 (NCI-H226) was 20.8 µM (inactive). For the same molecule, the GI50 (NCI-H23) was 24.4 µM (inactive), the GI50 (NCI-H522) was 11.6 µM (inactive) and the GI50 (NCI/ADR-RES) was 11.2 µM (inactive). For the same molecule, the GI50 (OVCAR-3) was 12.9 µM (inactive), the GI50 (OVCAR-4) was 12.9 µM (inactive) and the GI50 (OVCAR-5) was 29 µM (inactive). For the same molecule, the GI50 (OVCAR-8) was 18 µM (inactive), the GI50 (PC-3) was 14.4 µM (inactive) and the GI50 (RPMI-8226) was 3.46 µM (inactive). The GI50 (RXF 393) was 17.9 µM (inactive), the GI50 (SF-268) was 28.8 µM (inactive) and the GI50 (SF-295) was 7.4 µM (inactive). For the same molecule, the GI50 (SF-539) was 15.9 µM (inactive), the GI50 (SK-MEL-2) was 22.2 µM (inactive) and the GI50 (SK-MEL-5) was 11.4 µM (inactive). The GI50 (SK-OV-3) was 14.1 µM (inactive), the GI50 (SN12C) was 47 µM (inactive) and the GI50 (SNB-19) was 30.8 µM (inactive). For the same molecule, the GI50 (SNB-75) was 19.1 µM (inactive), the GI50 (SR) was 10.4 µM (inactive) and the GI50 (SW-620) was 62.4 µM (inactive). For the same molecule, the GI50 (T47D) was 3.37 µM (inactive), the GI50 (TK-10) was 29.4 µM (inactive) and the GI50 (U-251) was 16.5 µM (inactive). For the same molecule, the GI50 (UACC-257) was 17.3 µM (inactive), the GI50 (UACC-62) was 12.5 µM (inactive) and the GI50 (UO-31) was 19 µM (inactive).
